The text below walks through data of patent US12059422B2 (MEI Pharma, Inc., priority 2011, dated 2024).

Each structure is given as a SMILES string. pIC50: −log10 of the molar value.

PI3Kα, sequence (P27986 2-724): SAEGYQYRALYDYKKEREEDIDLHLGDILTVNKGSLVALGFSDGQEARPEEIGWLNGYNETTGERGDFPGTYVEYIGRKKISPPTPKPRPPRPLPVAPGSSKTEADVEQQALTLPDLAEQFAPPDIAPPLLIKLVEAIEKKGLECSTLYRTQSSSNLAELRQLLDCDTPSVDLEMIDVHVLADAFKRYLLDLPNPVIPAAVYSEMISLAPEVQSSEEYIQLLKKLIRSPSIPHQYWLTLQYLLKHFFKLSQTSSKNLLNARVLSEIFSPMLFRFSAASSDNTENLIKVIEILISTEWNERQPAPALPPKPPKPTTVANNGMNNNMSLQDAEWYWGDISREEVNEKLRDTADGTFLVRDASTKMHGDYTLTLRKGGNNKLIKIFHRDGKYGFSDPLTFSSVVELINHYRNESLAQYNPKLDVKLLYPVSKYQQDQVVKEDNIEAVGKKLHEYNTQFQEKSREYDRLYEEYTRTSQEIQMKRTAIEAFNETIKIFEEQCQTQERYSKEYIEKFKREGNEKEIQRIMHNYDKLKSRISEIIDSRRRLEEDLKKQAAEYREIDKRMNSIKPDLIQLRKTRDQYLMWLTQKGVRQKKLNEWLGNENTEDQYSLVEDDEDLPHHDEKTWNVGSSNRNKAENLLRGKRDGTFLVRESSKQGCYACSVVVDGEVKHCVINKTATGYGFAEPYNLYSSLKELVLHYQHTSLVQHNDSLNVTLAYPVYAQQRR
PI3Kα, sequence (P42336 whole entry): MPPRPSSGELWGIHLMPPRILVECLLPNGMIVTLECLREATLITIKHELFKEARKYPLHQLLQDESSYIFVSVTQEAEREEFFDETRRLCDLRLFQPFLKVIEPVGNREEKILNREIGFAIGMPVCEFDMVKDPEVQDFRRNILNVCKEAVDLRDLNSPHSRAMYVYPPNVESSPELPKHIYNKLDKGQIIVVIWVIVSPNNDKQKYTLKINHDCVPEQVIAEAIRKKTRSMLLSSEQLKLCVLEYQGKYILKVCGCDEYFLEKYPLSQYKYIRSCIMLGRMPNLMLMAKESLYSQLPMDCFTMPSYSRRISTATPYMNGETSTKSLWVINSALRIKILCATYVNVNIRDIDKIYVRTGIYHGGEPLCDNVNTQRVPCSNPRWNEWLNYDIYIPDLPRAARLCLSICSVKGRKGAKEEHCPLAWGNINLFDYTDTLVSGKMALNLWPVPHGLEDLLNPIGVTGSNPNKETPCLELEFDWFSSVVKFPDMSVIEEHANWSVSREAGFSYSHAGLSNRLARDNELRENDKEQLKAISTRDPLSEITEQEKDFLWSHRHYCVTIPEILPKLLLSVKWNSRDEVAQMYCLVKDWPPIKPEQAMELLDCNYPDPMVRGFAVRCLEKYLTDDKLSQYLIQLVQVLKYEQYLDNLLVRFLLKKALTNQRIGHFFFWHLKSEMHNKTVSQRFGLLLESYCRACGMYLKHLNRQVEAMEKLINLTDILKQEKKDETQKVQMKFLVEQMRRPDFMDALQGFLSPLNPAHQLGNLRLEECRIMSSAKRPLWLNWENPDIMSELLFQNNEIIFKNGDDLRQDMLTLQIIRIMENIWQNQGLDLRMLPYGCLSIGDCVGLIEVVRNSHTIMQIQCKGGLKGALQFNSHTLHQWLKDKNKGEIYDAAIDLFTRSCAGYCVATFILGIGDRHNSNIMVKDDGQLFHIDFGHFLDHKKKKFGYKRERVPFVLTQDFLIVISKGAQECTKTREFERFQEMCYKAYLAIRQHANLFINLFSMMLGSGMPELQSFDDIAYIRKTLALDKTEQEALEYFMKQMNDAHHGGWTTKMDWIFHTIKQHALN

This experiment addresses PI3Kα (Homo sapiens, UniProt P42336). Put plainly: ELISA assay for PI3Kα: in-cell ELISA, phosphorylation of AKT (Thr308) in MDA-MB-453 cells. It counts as cell-based. Conditions: cellular, pAKT (Thr308), IGF-1 stimulation, read-out: IC50 p110α. As to the method: PI3K alpha (PI3Kα) activity was determined by measuring the phosphorylation of AKT (Thr308) using an in-cell ELISA assay. MDA-MB-453 (breast carcinoma) cells were obtained from ATCC (ATCC #HTB-131). Growth medium was DMEM (CellGro #CV-10-013-CV) supplemented with 10% fetal bovine serum, 100 IU/mL penicillin, 100 μg/mL streptomycin, and 1×MEM non-essential amino acids. Phosphate buffered saline (PBS) contained 2.7 M NaCl, 54 mM KCl, 86 mM […] (dibasic, anhydrous), and 28 mM […] (monobasic, anhydrous) at pH 7.2. Stimulation mixture (10×) was 1000 ng/mL LONG® R^3 human IGF-1 (Sigma #I1271) diluted in serum-free DMEM medium (CellGro #CV-10-013-CV). Compounds for testing were dissolved and serially diluted in 100% DMSO (total of 10 concentrations), then diluted in serum-free DMEM to 2× final assay concentration. Fixative solution (2×) was 8% formaldehyde (Amresco #M134) diluted in PBS. Permeabilization solution was PBS supplemented with 0.1% Triton X-100. Blocking buffer was obtained from LiCor (LiCor #927-40000). Wash buffer was PBS supplemented with 0.1% Tween-20. Primary antibody solution was rabbit anti-pAKT^T308 monoclonal antibody (Cell Signaling #2965) and mouse anti-total S6 (Santa Cruz #74459) diluted 1:500 and 1:2000, respectively, in the blocking buffer. Secondary antibody solution was IRDye 800CW-conjugated goat anti-rabbit IgG (LiCor #926-32211) and IRDye 680LT-conjugated goat anti-mouse IgG (LiCor #926-68020) diluted 1:1000 and 1:2000, respectively, in the blocking buffer.
MDA-MB-453 cells were subcultured in growth medium and seeded into flat, clear bottom, 96-well plates (Corning #3904) at 40000 cells/well, then incubated overnight in a 5% CO2 incubator at 37° C. Growth medium in plates was replaced with 100 μL/well serum-free DMEM and incubated overnight at 37° C. in a 5% CO2 incubator. Fresh serum-free DMEM (50 μL/well) was added to plates. Compound treatment was performed by adding 50 μL/well of 2× compound mixture to plates and incubating for 1 hr at 37° C. and 5% CO2, after which 11 μL/well of 10× stimulation mixture was added and plates were incubated for 10 min at 37° C. and 5% CO2. Fixation was performed by adding 110 μL/well of 2× fixative solution to the plates and incubating for 20 min at room temperature. Permeabilization was performed by replacing fixation solution with 150 μL/well permeabilization solution and incubating for 10 min at room temperature. Permeabilization was repeated (for a total of 2 times). Permeabilization solution was replaced with 100 μL/well blocking buffer and plates were incubated for 1 hour at room temperature, after which 100 μL/well of primary antibody solution was added and plates were incubated overnight at 4° C. Plates were washed with wash buffer, after which 100 μL/well of secondary antibody solution was added to the plates and incubated in the dark for 1 hr at room temperature. Plates were washed with wash buffer, followed by a wash with PBS. After completely removing PBS, plates were scanned on the Licor Odyssey Imager. Images were quantified using Licor Odyssey application software. IC50 values were determined by curve fitting using a Collaborative Drug Discovery database (www.collaborativedrug.com).
For the molecule `CC(C)(Cc1ccccc1)Nc1nc(N2CCOCC2)nc(-n2c(C(F)F)nc3ccccc32)n1` [Compound A14, 4-(2-(difluoromethyl)-1H-benzo[d]imidazol-1-yl)-N-(2-methyl-1-phenylpropan-2-yl)-6-morpholino-1,3,5-triazin-2-amine], the negative-log IC50 (pIC50) was less than 6.30. Consider `CC(C)(Cc1ccccc1F)Nc1nc(N2CCOCC2)nc(-n2c(C(F)F)nc3ccccc32)n1` [Compound A15, 4-(2-(difluoromethyl)-1H-benzo[d]imidazol-1-yl)-N-(1-(2-fluorophenyl)-2-methylpropan-2-yl)-6-morpholino-1,3,5-triazin-2-amine], for which the pIC50 was less than 6.30. Regarding `CC(C)(Cc1ccccc1Cl)Nc1nc(N2CCOCC2)nc(-n2c(C(F)F)nc3ccccc32)n1` [Compound A16, 4-(2-(difluoromethyl)-1H-benzo[d]imidazol-1-yl)-N-(1-(2-chlorophenyl)-2-methylpropan-2-yl)-6-morpholino-1,3,5-triazin-2-amine], the pIC50 is less than 6.30.

With `Cc1ccccc1CC(C)(C)Nc1nc(N2CCOCC2)nc(-n2c(C(F)F)nc3ccccc32)n1` [Compound A18, 4-(2-(difluoromethyl)-1H-benzo[d]imidazol-1-yl)-N-(2-methyl-1-(o-tolyl)propan-2-yl)-6-morpholino-1,3,5-triazin-2-amine], the pIC50 was less than 6.30. Consider `COc1cccc(CC(C)(C)Nc2nc(N3CCOCC3)nc(-n3c(C(F)F)nc4ccccc43)n2)c1` [Compound A21, 4-(2-(difluoromethyl)-1H-benzo[d]imidazol-1-yl)-N-(1-(3-methoxyphenyl)-2-methylpropan-2-yl)-6-morpholino-1,3,5-triazin-2-amine], for which the pIC50 was less than 6.30. Take `CC(C)(Cc1ccc(F)cc1)Nc1nc(N2CCOCC2)nc(-n2c(C(F)F)nc3ccccc32)n1` [Compound A22, 4-(2-(difluoromethyl)-1H-benzo[d]imidazol-1-yl)-N-(1-(4-fluorophenyl)-2-methylpropan-2-yl)-6-morpholino-1,3,5-triazin-2-amine]: the pIC50 is less than 6.30. The figure for `CN1CCC(c2ccccc2CC(C)(C)Nc2nc(N3CCOCC3)nc(-n3c(C(F)F)nc4ccccc43)n2)CC1` [Compound A35, 4-(2-(difluoromethyl)-1H-benzo[d]imidazol-1-yl)-N-(2-methyl-1-(2-(1-methylpiperidin-4-yl)phenyl)propan-2-yl)-6-morpholino-1,3,5-triazin-2-amine] is less than 6.30; for `CC(C)(Cc1cccc(F)c1)Nc1nc(N2CCOCC2)nc(-n2c(C(F)F)nc3ccccc32)n1` [Compound A39, 4-(2-(difluoromethyl)-1H-benzo[d]imidazol-1-yl)-N-(1-(3-fluorophenyl)-2-methylpropan-2-yl)-6-morpholino-1,3,5-triazin-2-amine] it is less than 6.30; for `CC(C)(Cc1ccccc1-c1cccnc1)Nc1nc(N2CCOCC2)nc(-n2c(C(F)F)nc3ccccc32)n1` [Compound A40, 4-(2-(difluoromethyl)-1H-benzo[d]imidazol-1-yl)-N-(2-methyl-1-(2-(pyridin-3-yl)phenyl)propan-2-yl)-6-morpholino-1,3,5-triazin-2-amine] it is less than 6.30. The figure for `COc1cc(-c2ccccc2CC(C)(C)Nc2nc(N3CCOCC3)nc(-n3c(C(F)F)nc4ccccc43)n2)ccn1` [Compound A41, 4-(2-(difluoromethyl)-1H-benzo[d]imidazol-1-yl)-N-(1-(2-(2-methoxypyridin-4-yl)phenyl)-2-methylpropan-2-yl)-6-morpholino-1,3,5-triazin-2-amine] is less than 6.30. The figure for `Cc1cc(-c2ccccc2CC(C)(C)Nc2nc(N3CCOCC3)nc(-n3c(C(F)F)nc4ccccc43)n2)ccn1` [Compound A43, 4-(2-(difluoromethyl)-1H-benzo[d]imidazol-1-yl)-N-(2-methyl-1-(2-(2-methylpyridin-4-yl)phenyl)propan-2-yl)-6-morpholino-1,3,5-triazin-2-amine] is less than 6.30; for `CC(C)(Cc1ccccc1-c1cn[nH]c1)Nc1nc(N2CCOCC2)nc(-n2c(C(F)F)nc3ccccc32)n1` [Compound A44, 4-(2-(difluoromethyl)-1H-benzo[d]imidazol-1-yl)-N-(1-(2-(1H-pyrazol-4-yl)phenyl)-2-methylpropan-2-yl)-6-morpholino-1,3,5-triazin-2-amine] it is less than 6.30. `Cn1cc(-c2ccccc2CC(C)(C)Nc2nc(N3CCOCC3)nc(-n3c(C(F)F)nc4ccccc43)n2)cn1` [Compound A45, 4-(2-(difluoromethyl)-1H-benzo[d]imidazol-1-yl)-N-(2-methyl-1-(2-(1-methyl-1H-pyrazol-4-yl)phenyl)propan-2-yl)-6-morpholino-1,3,5-triazin-2-amine]: the pIC50 was 6.30 to 6.70. The figure for `Cn1nccc1-c1ccccc1CC(C)(C)Nc1nc(N2CCOCC2)nc(-n2c(C(F)F)nc3ccccc32)n1` [Compound A46, 4-(2-(difluoromethyl)-1H-benzo[d]imidazol-1-yl)-N-(2-methyl-1-(2-(1-methyl-1H-pyrazol-5-yl)phenyl)propan-2-yl)-6-morpholino-1,3,5-triazin-2-amine] is less than 6.30. As to `Cc1cccc(CC(C)(C)Nc2nc(N3CCOCC3)nc(-n3c(C(F)F)nc4ccccc43)n2)c1` [Compound A49, 4-(2-(difluoromethyl)-1H-benzo[d]imidazol-1-yl)-N-(2-methyl-1-m-tolylpropan-2-yl)-6-morpholino-1,3,5-triazin-2-amine], the pIC50 is less than 6.30. The figure for `COc1cc(CC(C)(C)Nc2nc(N3CCOCC3)nc(-n3c(C(F)F)nc4ccccc43)n2)ccc1F` [Compound A50, 4-(2-(difluoromethyl)-1H-benzo[d]imidazol-1-yl)-N-(1-(4-fluoro-3-methoxyphenyl)-2-methylpropan-2-yl)-6-morpholino-1,3,5-triazin-2-amine] is less than 6.30; for `CC(C)(Cc1ccc(F)cc1F)Nc1nc(N2CCOCC2)nc(-n2c(C(F)F)nc3ccccc32)n1` [Compound A51, 4-(2-(difluoromethyl)-1H-benzo[d]imidazol-1-yl)-N-(1-(2,4-difluorophenyl)-2-methylpropan-2-yl)-6-morpholino-1,3,5-triazin-2-amine] it is less than 6.30. The figure for `CC(C)(Cc1c(F)cccc1F)Nc1nc(N2CCOCC2)nc(-n2c(C(F)F)nc3ccccc32)n1` [Compound A52, 4-(2-(difluoromethyl)-1H-benzo[d]imidazol-1-yl)-N-(1-(2,6-difluorophenyl)-2-methylpropan-2-yl)-6-morpholino-1,3,5-triazin-2-amine] is less than 6.30; for `CC(C)(Cc1ccccc1-c1ccccc1F)Nc1nc(N2CCOCC2)nc(-n2c(C(F)F)nc3ccccc32)n1` [Compound A59, 4-(2-(difluoromethyl)-1H-benzo[d]imidazol-1-yl)-N-(1-(2′-fluorobiphenyl-2-yl)-2-methylpropan-2-yl)-6-morpholino-1,3,5-triazin-2-amine] it is less than 6.30; for `Cc1ccccc1-c1ccccc1CC(C)(C)Nc1nc(N2CCOCC2)nc(-n2c(C(F)F)nc3ccccc32)n1` [Compound A60, 4-(2-(difluoromethyl)-1H-benzo[d]imidazol-1-yl)-N-(2-methyl-1-(2′-methylbiphenyl-2-yl)propan-2-yl)-6-morpholino-1,3,5-triazin-2-amine] it is less than 6.30. Consider `CC(C)(Cc1ccccc1-c1ccccc1Cl)Nc1nc(N2CCOCC2)nc(-n2c(C(F)F)nc3ccccc32)n1` [Compound A61, 4-(2-(difluoromethyl)-1H-benzo[d]imidazol-1-yl)-N-(1-(6′-chlorobiphenyl-2-yl)-2-methylpropan-2-yl)-6-morpholino-1,3,5-triazin-2-amine], for which the pIC50 was less than 6.30. The result for `CC(C)(Cc1ccccc1-c1cccnc1F)Nc1nc(N2CCOCC2)nc(-n2c(C(F)F)nc3ccccc32)n1` [Compound A62] reads less than 6.30.
